Results taken from patent US5508299A, “Imidazolyl-substituted cyclohexane derivatives” (Bayer Aktiengesellschaft, priority 1992, dated 1996).

What was measured:
[1] = test system: smooth muscle cells from aortas of pigs; experiment: Inhibition of the proliferation of smooth muscle cells (3H-thymidine incorporation); assay type: cell-based, pig; settings: porcine aortic smooth muscle cells
Protocol: Investigation of the inhibition of the proliferation of smooth muscle cells by the compounds according to the invention
To determine the antiproliferative action of the compounds, smooth muscle cells are used which are obtained from aortas of pigs by the media explant technique [R. Ross, J. Cell. Biol. 50, 172, 1971]. The cells are inoculated into suitable culture dishes, as a rule 96-hole plates, and cultured at 37° C. in 5% CO2 for 2-3 days in medium 199 containing 7.5% FCS and 7.5% NCS, 2 mmol L-glutamine and 15 mmol HEPES, pH 7.4. The cells are then synchronised for 2-3 days by withdrawal of serum and then stimulated into growth using serum or other factors. Test compounds are simultaneously added. After 16-20 hours, 1 μCi ^3 H-thymidine is added and after a further 4 hours the incorporation of this substance into the TCA-precipitatable DNA of the cells is determined.
To determine the IC50 values, the active compound concentration is calculated which, on sequential dilution of the active compound, causes half-maximal inhibition of the thymidine incorporation produced by 1% FCS.

[2] = target: T1, angiotensin II receptor (Bos taurus, UniProt P25104); experiment: Angiotensin II receptor binding in membrane fractions of the adrenal cortex (bovine); settings: bovine adrenal cortex membranes; 3H-angiotensin II (3-5 nM); 60 min, room temperature, pH 7.2
T1 construct: partially purified membrane fractions of bovine AGC using radioactive angiotensin II; from tissue; host or cells: bovine adrenal gland cortex, partially purified membrane fractions
T1 sequence (P25104 1-359): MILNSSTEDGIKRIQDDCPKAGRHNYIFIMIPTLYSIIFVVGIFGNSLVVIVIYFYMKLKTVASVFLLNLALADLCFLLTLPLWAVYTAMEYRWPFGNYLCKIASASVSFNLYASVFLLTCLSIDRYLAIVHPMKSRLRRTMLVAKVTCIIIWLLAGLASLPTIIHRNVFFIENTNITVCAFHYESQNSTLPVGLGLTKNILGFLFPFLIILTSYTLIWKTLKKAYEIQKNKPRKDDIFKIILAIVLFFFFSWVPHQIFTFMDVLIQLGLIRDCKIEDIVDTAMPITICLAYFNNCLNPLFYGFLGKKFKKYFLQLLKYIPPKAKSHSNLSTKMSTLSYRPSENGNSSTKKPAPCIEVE
From the text: Interaction of the compounds according to the invention with the angiotensin II receptor in membrane fractions of the adrenal cortex (bovine)
Adrenal gland cortices from cattle (AGCs), which have been freshly removed and carefully freed from gland medulla, are comminuted in sucrose solution (0.32M) with the aid of an Ultra-Turrax (Janke & Kunkel, Staufen i.B.) to give a coarse membrane homogenate and partially purified to give membrane fractions in two centrifugation steps.
The receptor binding investigations are carried out on partially purified membrane fractions of bovine AGC using radioactive angiotensin II in an assay volume of 0.25 ml, which specifically contains the partially purified membranes (50-80 μg), ^3 H-angiotensin II (3-5 nM), test buffer solution (50 mM Tris, pH 7.2, 5 mM MgCl2) and the substances to be investigated. After an incubation period of 60 min at room temperature, the unbound radioactivity of the samples is separated by means of moistened glass fibre filters (Whatman GF/C) and the bound radioactivity is measured […] in a scintillation cocktail after washing the protein with ice-cold buffer solution (50 mM Tris/HCl, pH 7.4, 5% PEG 6000). The raw data were analysed using computer programs to give Ki or IC50 values (K1 : IC50 values corrected for the radioactivity used; IC50 values: concentration at which the substance to be investigated causes a 50% inhibition of the specific binding of the radioligand).

[3] = test system: contractions of isolated rabbit aorta rings induced by angiotensin II (AII); experiment: Inhibition of the vascular contraction induced by angiotensin II in isolated rabbit aorta rings in vitro; assay type: cell-based; settings: Oryctolagus cuniculus, based on the 3rd = submaximal agonist concentration, read-out: IC50 against contractions induced by AII
Protocol: Investigation of the inhibition of the contraction induced by agonists
Rabbits of either sex are stunned by a blow to the back of the head and bled out, or in some cases anaesthetised with Nembutal (about 60-80 mg/kg i.v.) and sacrificed by opening the thorax. The thorax aorta is removed, freed from adhering connective tissue, divided into ring segments 1.5 mm wide and individually transferred under an initial loading of about 3.5 g to 10 ml organ baths containing Krebs-Henseleit nutrient solution, aerated with 95% O2 /5% CO2 and temperature-controlled at 37° C., of the following composition: 119 mmol/l of NaCl; 2.5 mmol/l of CaCl2 ×2H2 O; 1.2 mmol/l of KH2 PO4; 10 mmol/l of glucose; 4.8 mmol/l of KCl; 1.4 mmol/l of MgSO4 ×7 H2 O and 25 mmol/l of NaHCO3.
The contractions are determined isometrically by means of Statham UC2 cells via bridge amplifiers (ifd Mulheim or DSM Aalen) and digitalised by means of A/D converters (System 570, Keithley Munich) and assessed. The agonist dose response curves (DRCs) are plotted hourly. With each DRC, 3 or 4 individual concentrations are applied to the baths at a 4 min interval. After the end of the DRC and subsequent washing-out cycles (16 times in each case about 5 sec/min with the abovementioned nutrient solution), a 28-minute resting or incubation phase follows, within which the contractions as a rule reach the starting value again.
The height of the 3rd DRC, in a normal case, is used as a reference quantity for the assessment of the test substance to be investigated in further runs, which substance is applied to the baths in the following DRCs in increasing dose in each case at the start of the incubation period. Each aorta ring is in this case stimulated for the whole day, always with the same agonist.
Agonists and their standard concentrations (administration volume per individual dose=100 μl):
To calculate the IC50 (concentration at which the substance to be investigated causes a 50% inhibition), the effect is in each case based on the 3rd=submaximal agonist concentration.

Row | Ki [2] [nM] | IC50 [3] [nM] | Compound | Inhibition [%] at 10^-6 M [1] [%]
1 | 440 | – | CCCCc1nc(Cl)c(C=O)n1Cc1ccc([C@@H]2CCCC[C@H]2c2nnn[nH]2)cc1 (relative stereo) [Example 16, 5-{trans-2-[4-(2-Butyl-4-chloro-5-formyl-imidazol-1-yl-methyl)-phenyl]-cyclohex-1-yl}-tetrazole] | –
2 | 120 | 920 | CCCCc1nc(Cl)c(CO)n1Cc1ccc([C@@H]2CCCC[C@H]2C(=O)NS(=O)(=O)c2ccc(C)cc2)cc1 (relative stereo) [Example 9] | –
3 | – | 1400 | CCCCc1nc(Cl)c(C(=O)O)n1Cc1ccc([C@@H]2CCCC[C@H]2C(=O)O)cc1 (relative stereo) [Example 4] | –

The remaining lines, values behind:

Row | Compound | Ki [2] [nM] | IC50 [3] [nM] | Inhibition [%] at 10^-6 M [1] [%]
4 | CCCCc1nc(Cl)c(CO)n1Cc1ccc(C2CCCCC2C(=O)N[C@H](CO)c2ccccc2)cc1 (single isomer, unassigned) [Example 10] | – | – | 12
5 | CCCCc1nc(Cl)c(C(=O)O)n1Cc1ccc([C@@H]2CCCC[C@H]2C(=O)NS(=O)(=O)c2ccc(C)cc2)cc1 (relative stereo) [Example 13, N-(4-Tolylsulphonyl)-trans-2-[4-(2-butyl-4-chloro-5-carboxy-imidazol-1-yl-methyl)phenyl]-cyclohexane-1-carboxamide] | 72 | 240 | –
6 | CCCCc1nc(Cl)c(C=O)n1Cc1ccc(C2CCCCC2C(=O)N[C@H](CO)c2ccccc2)cc1 (single isomer, unassigned) [Example 7] | – | – | 100
7 | CCCCc1nc(Cl)c(C=O)n1Cc1ccc(C2CCCCC2C(=O)N[C@H](CO)c2ccccc2)cc1 (single isomer, unassigned) [Example 6] | – | – | 41
8 | CCCCc1nc(Cl)c(CO)n1Cc1ccc(C2CCCCC2C(=O)N[C@H](CO)c2ccccc2)cc1 (single isomer, unassigned) [Example 11] | – | – | 100
